The record followed here is US20100331348A1, “TROPANE DERIVATIVES USEFUL AS PESTICIDES” (SYNGENTA CROP PROTECTION, INC., priority 2007, published 2010).

The structures appear in SMILES notation. Read-outs that look alike come from different tables or passages of the source.

Experiment [1] has as its system Plutella xylostella. Briefly: Plutella xylostella (Diamond back moth) artificial diet test. To be noted: 120 h, read-out: control of Plutella xylostella.
The subject of experiment [2] is Heliothis virescens. Briefly: Heliothis virescens (Tobacco budworm) egg test on artificial diet. To be noted: 96 h, read-out: control of Heliothis virescens.
For experiment [3], the system named is Tetranychus urticae. To be noted: foliar, 192 h, read-out: control of Tetranychus urticae.
For experiment [4], the system named is Erysiphe graminis f.sp. tritici. Description: Erysiphe graminis f.sp. tritici (wheat powdery mildew) leaf disk assay. It counts as in vivo. To be noted: Blumeria graminis, foliar, 96 h, preventive, four days after inoculation, read-out: control of fungal infection, Erysiphe graminis fsp. tritici.
The subject of experiment [5] is Puccinia recondita f.sp. tritici. Briefly: Puccinia recondita f.sp. tritici (wheat brown rust) leaf disk assay. In kind it is in vivo. To be noted: foliar, 216 h, preventive, nine days after inoculation, read-out: control of fungal infection, Puccinia recondita f.sp. tritici.
For experiment [6], the system named is Pyricularia oryzae. Briefly: whole plant or invertebrate. In kind it is in vivo. To be noted: foliar, 96 h.
Experiment [7] relates to Phytophthora infestans. Briefly: whole plant or invertebrate. To be noted: foliar, 96 h, read-out: control of fungal infection, Phytophthora infestans. In kind it is in vivo.
Experiment [8] deals with Pythium ultimum. Briefly: Pythium ultimum (Damping off) growth inhibition in potato dextrose broth. In kind it is cell-based. To be noted: Globisporangium ultimum, 48 hours, read-out: control of fungal infection, Pythium ultimum.
Experiment [9] concerns Aedes aegypti. Description: Aedes aegypti (Yellow fever mosquito) larvae test. It counts as in vivo. To be noted: 48 h.
In experiment [10] the test system is Plasmopara viticola. Description: Plasmopara viticola (downy mildew of grapevine) leaf disk assay. It counts as in vivo. To be noted: foliar, 168 h, preventive, seven days after inoculation, read-out: control of fungal infection, Plasmopara viticola.
Where [11] appears, read: read-out: control of fungal infection, Pyricularia oryzae (at least 80% list).
The mark [12] stands for this setting: read-out: control of fungal infection, Pyricularia oryzae (at least 60% list).

In the case of `CCc1ncnc(N2C3CCC2CC(=NOCc2ccc(Br)cc2F)C3)c1Cl` [Example 5.85], the pest or weed control at 200 ppm in experiment [1], in experiment [2] and in experiment [3] was no less than 80% throughout.

With `Fc1cc(F)cc(CON=C2CC3CCC(C2)N3c2ncnc3sccc23)c1` [Example 5.205], the pest or weed control at 200 ppm in [4], in [5], in experiment [6] (setting [11]) and in [7] was no less than 80% throughout. Besides, the inhibition of growth at 200 ppm in experiment [8] was no less than 60%.

With `CCc1ncnc(N2C3CCC2CC(=NOCc2noc(C)n2)C3)c1Cl` [Example 5.92], in experiment [9], the pest or weed control at 2 ppm is no less than 80%. Besides, the pest or weed control at 200 ppm in experiment [4], in experiment [5], in experiment [1], in experiment [2] and in experiment [3] was no less than 80% each time.

On to `N#Cc1ccc(CON=C2CC3CCC(C2)N3c2ncnc3sccc23)cc1` [Example 5.163], for which the pest or weed control at 2 ppm in [9] was no less than 80%. Besides, the pest or weed control at 200 ppm in [4], in experiment [5], in experiment [6] (setting [11]), in experiment [7], in experiment [1] and in experiment [2] was no less than 80% throughout.

Take `Cc1ccc(OCC=C2CC3CCC(C2)N3c2ncnc3sccc23)cc1` [Example 3.30]: the pest or weed control at 2 ppm in experiment [9] is no less than 80%. Further, the pest or weed control at 200 ppm in experiment [5], in experiment [6] (setting [11]), in experiment [7], in experiment [10] and in [2] was no less than 80% each time.

As to `Cc1ccc(CON=C2CC3CCC(C2)N3c2ncnc3sccc23)cc1` [Example 5.145], the pest or weed control at 2 ppm in [9] is no less than 80%. The pest or weed control at 200 ppm in experiment [4] was no less than 80%; in experiment [5] it was no less than 80%; in experiment [6] (setting [12]) it was no less than 60%; in experiment [7], no less than 80%; in experiment [10] it was no less than 80%; in [1] it was no less than 80%. Further, the pest or weed control at 200 ppm in [2] and in experiment [3] was no less than 80% throughout.

For the compound `COc1ccc(CON=C2CC3CCC(C2)N3c2ncnc3sccc23)cc1` [Example 5.165], the pest or weed control at 200 ppm in experiment [4] and in experiment [7] was no less than 80% throughout. In addition, the inhibition of growth at 200 ppm in [8] was no less than 60%.

Consider `CCc1ncnc(N2C3CCC2CC(=NOCc2cc(OC)nc(N)n2)C3)c1Cl` [Example 5.91], for which the pest or weed control at 200 ppm in [4], in experiment [5] and in experiment [7] was no less than 80% in each case. Also, the inhibition of growth at 200 ppm in experiment [8] is no less than 60%.

`FC(F)(F)c1ccc(OC2C[C@H]3CC[C@@H](C2)N3c2ncnc3ccccc23)nc1` (stereo partly drawn) [Example 2.85] gave a pest or weed control at 2 ppm in experiment [9] of no less than 80%. For the same compound, the pest or weed control at 200 ppm in [4] was no less than 80%; in [6] (setting [12]) it was no less than 60%; in [2], no less than 80%; in experiment [3], no less than 80%.

In experiment [9], `CCc1ncnc(N2[C@@H]3CC[C@H]2CC(Oc2ccc(C)nc2)C3)c1Cl` (stereo partly drawn) [Example 2.151] returned a pest or weed control at 2 ppm of no less than 80%. In experiment [4], the pest or weed control at 200 ppm was no less than 80%. For the same compound, in experiment [8], the inhibition of growth at 200 ppm was no less than 60%.

In turn, `COc1ccc(CC2CC3CCC(C2)N3c2ncnc3sccc23)cc1` (stereo not drawn) [Example 7.11] came in with a pest or weed control at 2 ppm in experiment [9] of no less than 80%. Moreover, the pest or weed control at 200 ppm in experiment [5] is no less than 80%; in experiment [6] (setting [12]), no less than 60%; in experiment [10] it was no less than 80%; in experiment [2], no less than 80%; in [3], no less than 80%.

In experiment [9], `CCc1ncnc(N2C3CCC2CC(=NOCc2csc(C)n2)C3)c1Cl` [Example 5.98] registered a pest or weed control at 2 ppm of no less than 80%. For the same compound, the pest or weed control at 200 ppm in experiment [4] and in [5] was no less than 80% in each case. Moreover, the inhibition of growth at 200 ppm in experiment [8] is no less than 60%.

Consider `Cc1ccc(CC2CC3CCC(C2)N3c2ncnc3sccc23)cc1` (stereo not drawn) [Example 7.8], for which the pest or weed control at 2 ppm in experiment [9] was no less than 80%. Besides, the pest or weed control at 200 ppm in experiment [5] is no less than 80%; in experiment [6] (setting [12]) it was no less than 60%; in experiment [6] (setting [11]), no less than 80%; in experiment [10] it was no less than 80%; in [1] it was no less than 80%; in experiment [2], no less than 80%.

For `FC(F)(F)c1ccc(OC2C[C@H]3CC[C@@H](C2)N3c2ncnc3ccsc23)nc1` (stereo partly drawn) [Example 2.77], the pest or weed control at 200 ppm in [4] is no less than 80%; in experiment [5], no less than 80%; in experiment [6] (setting [12]), no less than 60%. For the same compound, the inhibition of growth at 200 ppm in experiment [8] is no less than 60%.

With `CCCCC1COC2(CC3CCC(C2)N3c2ncnc3sccc23)O1` (stereo not drawn) [Example 6.3], the pest or weed control at 2 ppm in experiment [9] was no less than 80%. The pest or weed control at 200 ppm in [4], in experiment [7], in [10], in experiment [1] and in [2] was no less than 80% each time.

In turn, `CCc1ncnc(N2C3CCC2CC(=NOCC2CC2)C3)c1Cl` [Example 5.3] displayed a pest or weed control at 2 ppm in experiment [9] of no less than 80%. The pest or weed control at 200 ppm in [4] and in experiment [5] was no less than 80% throughout. Moreover, the inhibition of growth at 200 ppm in experiment [8] is no less than 60%.

`c1ccc(CON=C2CC3CCC(C2)N3c2ncnc3sccc23)nc1` [Example 5.149] showed a pest or weed control at 2 ppm in experiment [9] of no less than 80%. The pest or weed control at 200 ppm in experiment [4], in [5] and in experiment [6] (setting [11]) was no less than 80% each time. In experiment [8], the inhibition of growth at 200 ppm is no less than 60%.

Compound `CCc1ncnc(N2C3CCC2CC(Cc2ccc(OC)cc2)C3)c1Cl` (stereo not drawn) [Example 7.32] returned a pest or weed control at 2 ppm in experiment [9] of no less than 80%. The pest or weed control at 200 ppm in experiment [5], in experiment [1], in [2] and in experiment [3] was no less than 80% throughout.

In [9], `CCC(=O)c1ccc(OC2C[C@H]3CC[C@@H](C2)N3c2ncnc(CC)c2Cl)cc1` (stereo partly drawn) [Example 2.166] registered a pest or weed control at 2 ppm of no less than 80%. The pest or weed control at 200 ppm in [5], in [7], in [2] and in experiment [3] was no less than 80% each time.

In the case of `CCc1ncnc(N2C3CCC2CC(=NOCc2ccc(OC)cc2)C3)c1Cl` [Example 5.16], the pest or weed control at 2 ppm in experiment [9] is no less than 80%. Also, the pest or weed control at 200 ppm in experiment [4], in experiment [5], in [10], in [1], in [2] and in experiment [3] was no less than 80% each time.

For the compound `Fc1cccc2c(N3[C@@H]4CC[C@H]3CC(Oc3cc(C(F)(F)F)ccn3)C4)ccnc12` (stereo partly drawn) [Example 2.185], the figures for the pest or weed control at 200 ppm in experiment [4], in experiment [6] (setting [12]) and in experiment [7] were no less than 80%, no less than 60% and no less than 80%, respectively. Moreover, the inhibition of growth at 200 ppm in experiment [8] was no less than 60%.
